# Measurements from patent US20220390471A1, “INTEGRATED DRUG DISCOVERY PLATFORM FOR PROTEIN MISFOLDING DISORDERS ASSOCIATED WITH METABOLITE ACCUMULATION” (Ramot at Tel-Aviv University Ltd., priority 2021, published 2022).
# Read-outs that look alike come from different tables or passages of the source.
# Experiments:
# SH-SY5Y cells [1] = test: MTT cell viability assay, SH-SY5Y cells; assay type: cell-based, human; settings: for Cell viability with inhibitor-containing Hcy solution compared to Hcy alone (MTT): Hcy 2 mg/mL with EGCG 0.1 mM or TA 0.01 mM
# Experimental: SH-SY5Y cells (ATCC CRL-2266) or HEK293 cells (ATCC® CRL-1573) were cultured (2×10^5 cells/mL) in DMEM/Nutrient Mixture F12 (Ham's; 1:1) supplemented with 10% fetal bovine serum (FBS) in 96-well tissue microplates (100 μL per well) and allowed to adhere overnight at 37° C. Half of each plate was plated with cells, with the other half later serving as a control containing solutions alone. The treatment solutions were prepared as follows: Hcy or methionine were dissolved at 90° C. and at various concentrations in cell media without FBS, followed by gradual cooling of the solutions. For solutions containing polyphenols, Hcy (final concentration of 2 mg/mL) was similarly dissolved in cell media and mixed with EGCG or TA (final concentration of 0.1 mM and 0.01 mM, respectively, stock solution dissolved in cell medium) before gradual cooling. The medium was replaced and cells were treated with the solutions (100 μL per well), followed by overnight incubation at 37° C. Control cells were incubated with medium that was treated in the same manner (without Hcy). Controls of media supplemented with the inhibitors, without Hcy, were examined as well. Cell viability was evaluated using the 3-(4,5-dimethylthiazolyl-2)-2,5-diphenyltetrazolium bromide (MTT) assay. Briefly, 10 μL of 5 mg/mL MTT dissolved in PBS was added to each well. After a 4 hours incubation at 37° C. 100 μL of extraction buffer […] dissolved in a mixture of 50% DMF and 50% DDW (pH 4.7)] was added to each well, and the plates were further incubated at 37° C. for 30 min. Finally, color intensity was measured using an ELISA reader at 570 nm. Blank measurements of the solutions without cells were respectively subtracted. The data points are presented as mean±SD. For inhibitors and methionine controls, two-tailed Student's t test was performed when two groups were compared.
# HEK293 cells = test: MTT cell viability assay, HEK293 cells; assay type: cell-based; settings: HEK293 non-neuronal cell line, 24 hours
# Experimental: SH-SY5Y cells (ATCC CRL-2266) or HEK293 cells (ATCC® CRL-1573) were cultured (2×10^5 cells/mL) in DMEM/Nutrient Mixture F12 (Ham's; 1:1) supplemented with 10% fetal bovine serum (FBS) in 96-well tissue microplates (100 μL per well) and allowed to adhere overnight at 37° C. Half of each plate was plated with cells, with the other half later serving as a control containing solutions alone. […] For solutions containing polyphenols, Hcy (final concentration of 2 mg/mL) was similarly dissolved in cell media and mixed with EGCG or TA (final concentration of 0.1 mM and 0.01 mM, respectively, stock solution dissolved in cell medium) before gradual cooling. The medium was replaced and cells were treated with the solutions (100 μL per well), followed by overnight incubation at 37° C. Control cells were incubated with medium that was treated in the same manner (without Hcy). Controls of media supplemented with the inhibitors, without Hcy, were examined as well. Cell viability was evaluated using the 3-(4,5-dimethylthiazolyl-2)-2,5-diphenyltetrazolium bromide (MTT) assay. Briefly, 10 μL of 5 mg/mL MTT dissolved in PBS was added to each well. After a 4 hours incubation at 37° C. […] Finally, color intensity was measured using an ELISA reader at 570 nm. […]
# SH-SY5Y cells [2] = test: Annexin V and propidium iodide apoptosis assay (flow cytometry); assay type: cell-based, human
# Experimental: SH-SY5Y cells were cultured at 2×10^5 cells/mL in 24-well plates in DMEM/Nutrient Mixture F12 (Ham's; 1:1) supplemented with 10% FBS and were allowed to adhere overnight at 37° C. The treatment solutions containing Hcy and methionine were prepared as described above for the MTT assay. Cells were treated with the solutions followed by overnight incubation at 37° C. Control cells were incubated with medium that was treated in the same manner without Hcy. The apoptotic effect was evaluated using the MEBCYTO Apoptosis kit (MBL International), according to the manufacturer's instructions. Briefly, the adherent cells were trypsinized, detached and combined with floating cells from the incubated growth medium. Cells were then centrifuged and washed once with PBS and once with binding buffer. Cells were subsequently incubated with annexin V-FITC and PI for 15 min in the dark, resuspended in 200 μL binding buffer and analyzed by flow cytometry using a single laser-emitting excitation light at 488 nm. Data from at least 10^4 cells were acquired using the BD FACSort and the CellQuest software (BD Biosciences). Analysis was performed using the FlowJo software (TreeStar, version 14).
# SH-SY5Y cells [3] = test: ProteoStat staining, confocal microscopy of treated SH-SY5Y cells; assay type: cell-based, human; settings: Hcy assemblies 2 mg/mL, 4 hours
# Experimental: SH-SY5Y cells: 2×10^5 cells/mL were cultured in DMEM/Nutrient Mixture F12 (Ham's; 1:1) supplemented with 10% FBS in 24-well plate on glass slides coated with 0.01% Poly-L-Lysine. When reaching ˜70-80% confluency, cells were treated with Hcy (2 mg/mL dissolved at 90° C. in cell media without FBS, followed by gradual cooling of the solution). After 4 hours of incubation, the cells were immediately supplemented with ProtesoStat dye diluted 1:250 in ProteoStat assay buffer followed by incubation for 15 min at room temperature protected from light. Cells were imaged using Leica TCS SP8 laser confocal microscope with ×63 1.4 NA or ×100 1.4 NA oil objectives. An argon laser with 488 excitation line was used for ProteoStat (emission wavelength, 500-600 nm).
# cys4Δ yeast strain [4] = assay type: cell-based, Saccharomyces cerevisiae
# Experimental: The cys4 gene was disrupted in wild-type (WT) yeast strain (BY4741) via homologous recombination using PCR fragments amplified from the plasmid pFA6a-KanMX6 as a template with primer DL154:
# (§1) WT and cys4Δ strains were grown overnight at 30° C. Unless otherwise specified, the strains were grown on synthetic defined medium (SD) containing 20 mg/L L-methionine, 20 mg/L L-histidine monohydrochloride monohydrate, 20 mg/L uracil and 30 mg/L L-leucine. Cysteine was added to a final concentration of 13 mg/L. Hcy was added at the indicated concentrations.
# For spotting assays, strains were diluted to 6.25*10^7 cells/mL and then 5-fold serially diluted and spotted on the indicated plates. Plates were incubated at 30° C. for 2-3 days.
# (§2) For OD600 measurements, strains were diluted to OD600 0.01. 200 μL of cells were platted on 96 wells plates and incubated at 30° C. for 30 hours with continuous shaking. OD600 was measured using Tecan™ SPARK 10M plate reader.
# (§3) The percentage of growth analysis (FIG. 10F) represents the OD600 levels following 27 hours of growth in the plate reader. The percentage of growth represents the growth under the indicated conditions, with or without 0.3 mM TA, compared to the growth of WT without TA.
# cys4Δ yeast strain [5] = test: Aggregation level assay in yeast (ProteoStat, flow cytometry); assay type: cell-based, Saccharomyces cerevisiae; settings: cys4Δ with 100 mg/L Hcy compared to WT and to mutant without Hcy
# Experimental: For each sample, 2×10^6 cells/mL of logarithmic cells were resuspended with ProteoStat dye (Enzo Life Sciences). Cells were incubated for 15 min at room temperature protected from light. Flow cytometry was preformed using Stratedigm S1000EXi and the CellCapTure software (Stratedigm, San Jose, Calif.). Live cells were gated (P1) by forward scatter and side scatter. Fluorescence channels for FITC (530/30) and PE-Cy5 (676/29) were used utilizing a 488 nm laser source. A total of 50,000 events were acquired for each sample. Analyses were performed using the FlowJo software (TreeStar, version 14).
# β-amyloid1-42 = target: T1, β-amyloid1-42 (Homo sapiens, UniProt P05067); test: In-vitro seeding of β-amyloid1-42 by Hcy assemblies (ThT binding assay); assay type: biochemical; settings: 20% v/v pre-formed Hcy assemblies (2, 5, 10 mg/mL stocks), 3 μM β-amyloid1-42 monomers, 37° C.
# T1 construct: purchased rPeptide
# T1 sequence (P05067 672-713 limits assumed): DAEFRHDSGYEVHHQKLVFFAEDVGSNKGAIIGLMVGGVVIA
# Experimental: Hcy was dissolved at 90° C. in PBS followed by gradual cooling of the solution. […] (rPeptide) was dissolved in DMSO to a concentration of 120 μM. The monomeric protein was mixed with pre-formed 20% v/v Hcy assemblies (taken from 10, 5 or 2 mg/mL stock solutions), or with an equivalent volume of PBS as a control, to a final concentration of 3 μM β-amyloid1-42 ThT was added to a final concentration of 20 μM. Aggregation was monitored using Tecan™ Infinite 200 PRO fluorescence plate reader over time at 37° C. Blank measurements of Hcy only (without β-amyloid) were respectively subtracted.
# [6] = TEM of metabolite self-assembly; assay type: physicochemical; settings: dissolved at 90° C., gradual cooling
# Experimental: Hcy was dissolved at 90° C. in PBS at various concentrations followed by gradual cooling of the solution. […] Subsequently, 10 μL samples were placed on 400-mesh copper grids. After 2 min, excess fluids were removed. Samples were viewed using a JEOL 1200EX electron microscope operating at 80 kV.
# [7] = ThT binding assay of metabolite self-assembly; assay type: physicochemical; settings: emission 480 nm
# Experimental: Hcy was dissolved at 90° C. in PBS to a final concentration of 10, 5 and 2 mg/mL and maintained at 90° C. until the beginning of the measurement. Samples containing polyphenols were immediately mixed with the inhibitors. […] As a control, Hcy was diluted with PBS alone to the same final concentrations. […] Next, the solutions were plated in a black 96-well, clear, and flat bottom microplate (Greiner) and self-assembly kinetics were recorded over time at room temperature (uncontrolled gradual cooling of the solutions) with short shaking before each read. […] Following an overnight incubation at room temperature with gentle rotation (uncontrolled gradual cooling of solutions), ThT emission signal at 480 nm (excitation at 450 nm) was measured at room temperature with short shaking before each read and using a Tecan™ Infinite 200 PRO plate reader, gain 90.
# Hcy fibrils [8] = test: ThT binding assay, inhibition of Hcy self-assembly by polyphenols; assay type: biochemical; settings: 1 mM EGCG or 0.1 mM TA added at timepoint zero; Hcy in PBS; emission 480 nm, excitation 440 nm
# Experimental: Hcy was dissolved at 90° C. in PBS to a final concentration of 10, 5 and 2 mg/mL and maintained at 90° C. until the beginning of the measurement. Samples containing polyphenols were immediately mixed with the inhibitors. EGCG or TA (final concentration of 1 mM and 0.1 mM, respectively). As a control, Hcy was diluted with PBS alone to the same final concentrations. ThT in PBS was added to a final concentration of 20 μM for 5 and 10 mg/ml Hcy or 40 μM for 2 mg/ml Hcy. Next, the solutions were plated in a black 96-well, clear, and flat bottom microplate (Greiner) and self-assembly kinetics were recorded over time at room temperature (uncontrolled gradual cooling of the solutions) with short shaking before each read. ThT emission data at 480 nm (excitation at 440 nm), were measured using a Tecan™ SPARK 10 M plate reader, gain of 100 for 2 mg/ml, and using a Tecan™ Infinite 200 PRO plate reader, gain of 90 for 5 and 10 mg/ml.
# Hcy fibrils [9] = test: TEM of pre-formed solutions of Hcy with polyphenols; settings: Hcy 2 mg/mL + 1 mM EGCG or 0.1 mM TA
# Experimental: Hcy was dissolved at 90° C. in PBS at various concentrations followed by gradual cooling of the solution. Where indicated, EGCG or TA (final concentration of 1 mM and 0.1 mM, respectively) were added before gradual cooling. Subsequently, 10 μL samples were placed on 400-mesh copper grids. After 2 min, excess fluids were removed. Samples were viewed using a JEOL 1200EX electron microscope operating at 80 kV.
# WT yeast strain (BY4741) = test: Yeast growth assay, WT strain; assay type: cell-based, Saccharomyces cerevisiae; settings: 0.3 mM TA, SD with 13 mg/L cysteine and 100 mg/L Hcy, 27 hours
# Experimental: as §1, §2, §3
smiles,measurement,setting,value
"NC(CCS)C(=O)O (centres unmarked) [Hcy, 2-Amino-4-sulfanylbutanoic acid]",Cytotoxicity (MTT cell viability),SH-SY5Y cells [1],dose-dependent cytotoxicity
same,Cell death (MTT),"SH-SY5Y cells [1]; SH-SY5Y, 24-hour treatment with pre-formed Hcy assemblies in cell medium",up to 80%
same,Cytotoxicity (MTT cell viability),HEK293 cells,no significant toxicity
same,Apoptotic activity (annexin V / PI),SH-SY5Y cells [2],stimulated apoptotic activity in a concentration-dependent manner
same,Detection of amyloid-like structures in cells (ProteoStat),SH-SY5Y cells [3],amyloid-like structures in treated SH-SY5Y cells
same,Growth sensitivity to Hcy supplied in the growth medium,"cys4Δ yeast strain [4]; cys4Δ compared to WT, SD media with Hcy at different concentrations",sensitivity to Hcy supplied in the growth medium was observed
same,Degree of aggregation upon Hcy feeding (ProteoStat flow cytometry),cys4Δ yeast strain [5],significantly higher degree of aggregation
same,Cross-seeding of β-amyloid1-42 aggregation (ThT signal),β-amyloid1-42,induced β-amyloid1-42 aggregation in a concentration-dependent manner
same,Formation of amyloid-like fibrils (TEM),[6],formed amyloid-like fibrils
same,ThT fluorescence of self-assembly,[7],higher metabolite concentrations showing stronger ThT fluorescence
"O=C(O[C@@H]1Cc2c(O)cc(O)cc2O[C@@H]1c1cc(O)c(O)c(O)c1)c1cc(O)c(O)c(O)c1 [EGCG, epigallocatechin gallate]","Inhibition of Hcy fibril formation, ThT fluorescence intensity over time",Hcy fibrils [8],significant reduction in the ThT fluorescence intensity curves
same,Structures seen by TEM in mixture of Hcy with polyphenol,Hcy fibrils [9],no structures were formed
same,"Cell viability, inhibitors alone (MTT)","SH-SY5Y cells [1]; SH-SY5Y, 24 hours, EGCG 0.1 mM or TA 0.01 mM without Hcy",did not affect cell viability
same,Cell viability with inhibitor-containing Hcy solution compared to Hcy alone (MTT),"SH-SY5Y cells [1]; SH-SY5Y, 24 hours",significant increase in cell viability
"O=C(OC[C@H]1O[C@@H](OC(=O)c2cc(O)c(O)c(OC(=O)c3cc(O)c(O)c(O)c3)c2)[C@H](OC(=O)c2cc(O)c(O)c(OC(=O)c3cc(O)c(O)c(O)c3)c2)[C@@H](OC(=O)c2cc(O)c(O)c(OC(=O)c3cc(O)c(O)c(O)c3)c2)[C@@H]1OC(=O)c1cc(O)c(O)c(OC(=O)c2cc(O)c(O)c(O)c2)c1)c1cc(O)c(O)c(OC(=O)c2cc(O)c(O)c(O)c2)c1 [TA, tannic acid]","Inhibition of Hcy fibril formation, ThT fluorescence intensity over time",Hcy fibrils [8],significant reduction in the ThT fluorescence intensity curves
same,Structures seen by TEM in mixture of Hcy with polyphenol,Hcy fibrils [9],no structures were formed
same,Cell viability with inhibitor-containing Hcy solution compared to Hcy alone (MTT),"SH-SY5Y cells [1]; SH-SY5Y, 24 hours",significant increase in cell viability
same,"Cell growth with TA (percentage of growth, OD600)","cys4Δ yeast strain [4]; cys4Δ, 0.3 mM TA, SD with 13 mg/L cysteine and 100 mg/L Hcy, 27 hours",significantly improved the cell growth
same,"Cell growth with TA (percentage of growth, OD600)",WT yeast strain (BY4741),no effect
CSCC[C@H](N)C(=O)O [methionine],Cytotoxicity (MTT cell viability),"SH-SY5Y cells [1]; SH-SY5Y, 24-hour treatment, solutions prepared in cell medium",did not show any toxicity
same,Apoptotic activity (annexin V / PI),"SH-SY5Y cells [2]; SH-SY5Y, treated for 24 hours",did not show any apoptotic effect
same,Formation of amyloid-like fibrils (TEM),[6],did not form amyloid-like fibrils
same,ThT fluorescence of self-assembly,[7],did not show a fluorescence signal
